Measurements reported in paper PMC10391911, “Differential effects of two phosphodiesterase 4 inhibitors against lipopolysaccharide-induced neuroinflammation in mice” (BMC Neuroscience, 2023).
Read-outs that look alike come from different tables or passages of the source.

What was measured:
[1] = tested on: TNF-α production in LPS-induced BV-2 cells; test: TNF-α production in LPS-induced BV-2 cells (ELISA); assay type: cell-based, murine; details: for Effect on TNF-α levels: up to 10 µM; for IC50: Mus musculus, BV-2, read-out: IC50 against TNF-α
Method: BV-2 cells were seeded at a density of 5 × 10^5 cells/mL in 96-well plates. […] Finally, 1 µg/mL LPS was added to the cell culture medium for 24 h to induce inflammation.

[2] = tested on: NF-κB signaling pathway in LPS-exposed BV-2 cells; test: Western blotting of p-NF-κB and NF-κB in LPS-exposed BV-2 cells; assay type: cell-based, murine; details: 1 and 10 µM, LPS 1 µg/mL 4 h
Method: Then the cells were incubated with or without LPS (1 µg/mL) for 4 h. Cells were harvested using trypsin and washed twice in cold Dulbecco’s phosphate-buffered saline and lysed with RIPA lysis buffer (Elpis, Daejeon, Korea) containing protease and phosphatase inhibitor mini tablets (Thermo Fisher, Waltham, MA, USA). Protein lysate concentrations were determined using the Pierce BCA Protein Assay kit (Thermo Fisher). Protein samples (5 µg) were separated via 5–20% sodium dodecyl sulfate polyacrylamide gel electrophoresis and then transferred to polyvinylidene fluoride membranes (ATTO, Tokyo, Japan). After transfer, membranes were blocked using Tris-buffered saline containing 0.5% Tween 20 and 5% bovine serum albumin at room temperature for 1 h. The membranes were incubated overnight at 4℃ with primary antibodies at a dilution ratio of 1:1000. […] Subsequently, blots were detected using horseradish peroxidase-conjugated secondary antibodies (1:10,000 dilution) and the ECL substrate (Millipore Corporation, Billerica, MA, USA) at room temperature for 1 h. Protein expression levels were measured using WSE-6100 LuminoGraph (ATTO). The bands were analyzed using the ImageJ software (NIH, Bethesda, MD, USA).

[3] = Bidirectional MDR1-MDCK monolayer permeability; assay type: in vitro ADME, canine; details: dog, MDCK-MDR1; for Papp at 3 µM: both directions, read-out: Apparent permeability coefficients; for Papp A→B at 3 µM / Papp A→B at 10 µM / Papp A→B at 30 µM: read-out: Papp Apical → Basolateral; for Papp B→A at 3 µM / Papp B→A at 10 µM / Papp B→A at 30 µM: read-out: Papp Basolateral → Apical; for Papp A→B: read-out: Papp in the apical-to-basolateral direction
Method: (§1) MDR1-MDCK cells were seeded at a density of 2 × 10^5 cells/well on the apical side of 24-transwell plates with a pore size of 0.4 μm (Corning Costar, Cambridge, MA, USA). Each basolateral chamber was filled with 0.6 mL medium, and each apical side with 0.2 mL medium containing cells. The plates seeded with cells were incubated for 3 days. The culture medium was replaced on both the apical and basolateral sides 2 days after seeding. Before the experiment, the transepithelial electrical resistance was measured using an epithelial voltohmmeter (Millicell ERS-2; Millipore), where 300 ohms or greater was considered to indicate the formation of a cell monolayer with tight junctions. The cells were rinsed twice with pre-warmed Hank’s balanced salt solution (HBSS) containing 10 mM of HEPES and were incubated in a CO2 incubator for 30 min. […] After equilibration, the solutions containing the test or reference compounds were added to either the apical side (0.2 mL) or basolateral side (0.6 mL) of the wells, and the plates were incubated in a shaking incubator (37℃, 200 rpm). Samples were collected every 30 min. To test for apical-to-basolateral flow, 110 µL sample was removed from each basolateral chamber; to test for basolateral-to-apical flow, 110 µL sample was taken from each apical chamber; then, each well was replenished with 110 µL fresh HBSS. To each sample, 50 µL internal standard (5 ng/mL disopyramide) in water was added. Samples were prepared for analysis using solid-phase extraction, and the sample concentrations were analyzed via LC-MS/MS. The permeability of the tested compounds was evaluated by calculating the apparent permeability coefficient (Papp, cm/s) and the efflux ratio (ER). The Papp was calculated as follows: [drawing 1] where dQ/dt is the initial permeability rate of the compound across the cells (ng/s), A is the surface area of the cell monolayer (cm^2), and C0 is the initial concentration of the donor side (ng/mL). From the apical-to-basolateral and basolateral-to-apical Papp values, the ER was calculated as follows: [drawing 2]

[4] = tested on: MDR1-MDCK monolayer; test: Bidirectional MDR1-MDCK monolayer permeability; assay type: in vitro ADME, canine; details: for P-gp substrate: ER > 2 indicates drug efflux
Method: as §1

[5] = in vivo; details: male, C57BL/6J, mouse; for AUC(0-t): AUClast
Method: Plasma samples were obtained via centrifugation at 15,000 rpm for 3 min and stored at − 20℃ until LC-MS/MS analysis.
The brain-to-plasma ratio (Kp) and unbound Kp (Kp,uu) were calculated as follows: [drawing 5] [drawing 6]
Pharmacokinetic parameters were calculated via non-compartmental analysis using Phoenix WinNonlin, ver. 8.3 (Pharsight, Mountain View, CA, USA).

[6] = Brain disposition in mice
Method: Residual blood in the brain was removed from circulation via cardiac perfusion with saline solution.
For both plasma and brain samples, 30 µL each sample was vortexed with 270 µL acetonitrile containing disopyramide as the internal standard for protein precipitation.

[7] = In vitro protein-binding assay using equilibrium dialysis, plasma; assay type: in vitro ADME, mouse
Method: (§2) A rapid equilibrium dialysis device with inserts (cat no. #90,112, Thermo Fisher) was used for the protein-binding assay. […] The samples were incubated for 4 h in a shaking incubator (37℃, 300 rpm). After incubation, 50 µL buffer from the white chamber was added to 50 µL fresh mouse plasma or brain homogenate, and 50 µL dosing solution from the red chamber was added to 50 µL fresh buffer to adjust for matrix effects. To each sample, 200 µL ice-cold acetonitrile with internal standard was added. The samples were centrifuged at 4,000 rpm for 20 min and the supernatants were collected for LC-MS/MS analysis. The unbound fraction of drug (Fu) in plasma and brain tissue was calculated as follows based on previous studies: [drawing 3] [drawing 4]
(§3) where Cprotein-free compartment and Cprotein-containing compartment, D, and dh are the concentrations of drug in the buffer chamber and drug solution chamber, dilution factor, and diluted brain homogenate, respectively.
(§4) The values were calculated using the measured diluted free fractions and the respective dilution factor.

[8] = In vitro protein-binding assay using equilibrium dialysis, brain homogenate; assay type: in vitro ADME, mouse
Method: as §2, §3, §4

[9] = 1 h pretreatment, LPS 1 µg/mL 24 h
[10] = C57BL/6J, mouse, brain, po, 10 mg/kg, 4 h after oral 10 mg/kg, read-out: Concentration, Brain
[11] = C57BL/6J, mouse, brain, po, 10 mg/kg, 4 h after oral 10 mg/kg, read-out: Unbound brain concentration
[12] = C57BL/6J, mouse, brain, po, 10 mg/kg, oral 10 mg/kg, converted from ng/g, read-out: Unbound brain concentration
[13] = C57BL/6J, mouse, plasma, po, 10 mg/kg, 4 h after oral 10 mg/kg, read-out: Concentration, Plasma
[14] = C57BL/6J, mouse, plasma, po, 10 mg/kg, 4 h after oral 10 mg/kg, read-out: Unbound plasma concentration

O=C(Nc1c(Cl)cncc1Cl)c1ccc(OC(F)F)c(OCC2CC2)c1 [roflumilast]
Effect on TNF-α levels [1, 9]: dose-dependent decrease | IC50 [1, 9]: 12.2 nM | IC50 ([1]; converted from nM): 4.9 ng/mL | Effect on LPS-induced increase in p-NF-κB expression [2]: prevented the LPS-induced increase in p-NF-κB expression in a concentration-dependent manner | Papp at 3 µM ([3]; 3 µM): > 23 ×10⁻⁶ cm/s | Papp A→B at 3 µM ([3]; 3 µM): 25.1 ± 1.28 ×10⁻⁶ cm/s | Papp B→A at 3 µM ([3]; 3 µM): 23.9 ± 3.61 ×10⁻⁶ cm/s | Papp A→B at 10 µM ([3]; 10 µM): 44.5 ± 2.53 ×10⁻⁶ cm/s | Papp B→A at 10 µM ([3]; 10 µM): 40.8 ± 6.48 ×10⁻⁶ cm/s | Papp A→B at 30 µM ([3]; 30 µM): 113 ± 5.7 ×10⁻⁶ cm/s | Papp B→A at 30 µM ([3]; 30 µM): 72.2 ± 6.32 ×10⁻⁶ cm/s | Papp A→B ([3]; over 3, 10, and 30 µM): > 25 ×10⁻⁶ cm/s | Permeability class according to FDA guidelines [4]: high | P-gp substrate [4]: not P-gp substrates | bioavailability [5]: 2.3% | AUC(0-inf) ([5]; iv, 1 mg/kg): 5070 ± 1100 ng·h/mL | clearance ([5]; iv, 1 mg/kg): 3.33 mL/min/kg | half-life ([5]; iv, 1 mg/kg): 3.74 ± 0.71 h | AUC(0-t) ([5]; iv, 1 mg/kg): 4890 ± 940 ng·h/mL | AUC(0-inf) ([5]; po, 10 mg/kg): 1290 ± 540 ng·h/mL | Cmax ([5]; po, 10 mg/kg): 150 ± 70 ng/mL | Tmax ([5]; po, 10 mg/kg): 2.33 ± 1.53 h | half-life ([5]; po, 10 mg/kg): 7.13 ± 2.86 h | AUC(0-t) ([5]; po, 10 mg/kg): 1130 ± 540 ng·h/mL | concentration at 4 h [6, 10]: 18.2 ± 12.9 ng/g | concentration at 4 h [6, 11]: 0.07 ng/g | concentration at 4 h [6, 12]: 0.17 nM | concentration at 4 h [6, 13]: 30.6 ± 14.2 ng/mL | concentration at 4 h [6, 14]: 0.39 ng/mL | fraction unbound at 4 h, 5 µM ([7]; mouse, plasma): 0.0126 ± 0.0058 | fraction unbound at 4 h, 5 µM ([8]; mouse, brain homogenate): 0.0037 ± 0.002

O=C(O)Cc1ccc(Cc2cc(-c3cccc(Cl)c3)nc(C(F)(F)F)c2)cc1 [zatolmilast]
Effect on TNF-α levels [1, 9]: did not have this effect | Effect on LPS-induced increase in p-NF-κB expression [2]: did not | Papp at 3 µM ([3]; 3 µM): 3.72 to 7.18 ×10⁻⁶ cm/s | efflux ratio at 3 µM ([3]; 3 µM, read-out: ER): 1.92 | Papp A→B at 3 µM ([3]; 3 µM): 3.72 ± 0.33 ×10⁻⁶ cm/s | Papp B→A at 3 µM ([3]; 3 µM): 7.18 ± 1.53 ×10⁻⁶ cm/s | efflux ratio at 10 µM ([3]; 10 µM, read-out: ER): 1.89 | Papp A→B at 10 µM ([3]; 10 µM): 9.59 ± 0.84 ×10⁻⁶ cm/s | Papp B→A at 10 µM ([3]; 10 µM): 18 ± 1.37 ×10⁻⁶ cm/s | efflux ratio at 30 µM ([3]; 30 µM, read-out: ER): 1.81 | Papp A→B at 30 µM ([3]; 30 µM): 70.3 ± 9.58 ×10⁻⁶ cm/s | Papp B→A at 30 µM ([3]; 30 µM): 126 ± 8.39 ×10⁻⁶ cm/s | efflux ratio ([3]; over 3, 10, and 30 µM, read-out: Efflux ratios (ERs)): < 1.92 | Papp A→B ([3]; over 3, 10, and 30 µM): > 3.7 ×10⁻⁶ cm/s | Permeability class according to FDA guidelines [4]: moderately high | P-gp substrate [4]: not P-gp substrates | Efflux ratios (ERs) ([4]; over 3, 10, and 30 µM): < 2.0 | bioavailability [5]: 3.7% | AUC(0-inf) ([5]; iv, 1 mg/kg): 86900 ± 10900 ng·h/mL | Vd ([5]; iv, 1 mg/kg): 0.07 ± 0.01 L/kg | clearance ([5]; iv, 1 mg/kg): 0.167 mL/min/kg | half-life ([5]; iv, 1 mg/kg): 6.35 ± 0.62 h | AUC(0-t) ([5]; iv, 1 mg/kg): 81900 ng·h/mL | AUC(0-inf) ([5]; po, 10 mg/kg): 62000 ± 31800 ng·h/mL | Cmax ([5]; po, 10 mg/kg): 2530 ± 860 ng/mL | Tmax ([5]; po, 10 mg/kg): 2 ± 1.73 h | half-life ([5]; po, 10 mg/kg): 20.4 ± 6.77 h | AUC(0-t) ([5]; po, 10 mg/kg): 30300 ± 9640 ng·h/mL | Brain Kp,uu ([6]; 4 h after oral 10 mg/kg, 10 mg/kg): 0.18 | Kp at 4 h ([6]; C57BL/6J, mouse, brain and plasma, 4 h after oral 10 mg/kg): 0.33 | Kp uu at 4 h ([6]; C57BL/6J, mouse, brain and plasma, po, 10 mg/kg, 4 h after oral 10 mg/kg): < 0.18 | concentration at 4 h [6, 10]: 1200 ± 345 ng/g | concentration at 4 h [6, 11]: 1.7 ng/g | concentration at 4 h [6, 12]: 4.2 nM | concentration at 4 h [6, 13]: 3630 ± 890 ng/mL | concentration at 4 h [6, 14]: 9.57 ng/mL | fraction unbound at 4 h, 5 µM ([7]; pooled mouse plasma, 5 µM, mouse plasma, 4 h dialysis, read-out: Fu, Plasma): 0.0026 ± 0.0001 | fraction unbound at 4 h, 5 µM ([8]; mouse blank brain homogenate, 5 µM, mouse brain homogenate, 4 h dialysis, read-out: Fu, Brain): 0.0014 ± 0.0002
